Source: patent publication US11919918B2, “P2X3 andor P2X2/3 receptor antagonist, pharmaceutical composition comprising same, and use thereof” (BEIJING TIDE PHARMACEUTICAL CO., LTD., priority 2017, dated 2024)

What was measured:
human P2X3 receptor = human P2X3 receptor (Homo sapiens (Human), UniProt P56373); assay: Inhibitory activity on human P2X3 receptor (calcium 6 dye FLIPR assay, agonist α,β-MeATP); type: cell-based; settings: HEK293-P2X3 stably expressing cell line, FLIPR Tetra
Method: (§1) Biological Assay: Determination of the Inhibitory Activity of the Compounds on Human P2X3 and P2X2/3 Receptors
(§2) Cells were seeded into a poly-D-lysine-coated 384-well cell culture plate (Corning) at a density of 11,000 cells/well/25 μL of cell inoculation medium, and were cultured in a cell incubator overnight. On the day of the test, the calcium 6 dye was diluted to a 2× concentration with a assay buffer, 25 μL of the 2× calcium 6 dye was added to the 384-well cell culture plate, which was incubated at 37° C. for 2 hours, and then placed at room temperature for further use. The test compound and the agonist, α,β-MeATP were diluted to a 7× concentration with the assay buffer, 10 μL of the 7× test compound was added to the 384-well cell culture plate, which was incubated at room temperature for 15 minutes, and 10 μL of the 7× α,β-MeATP was transferred into the 384-well cell culture plate. The data were measured and analyzed using FLIPR Tetra, and the half inhibitory concentration (IC50) of the test compound on P2X3 and P2X2/3 receptors was calculated with the GraphPad Prism four-parameter equation.
(§3) Cell lines: human embryonic kidney cells HEK293-P2X3 and HEK293-P2X2/3 stably expressing cell lines;
(§4) Complete cell culture medium: DMEM High Glucose (Life Technology), which contained 10% fetal bovine serum, 4 mM GlutaMAX, 1% penicillin-streptomycin, and 350 μg/mL G418;
(§5) Cell inoculation medium: DMEM High Glucose (Life Technology), which contained 2% fetal bovine serum, and 4 mM GlutaMAX;
(§6) Cell culture conditions: 37° C., 5% CO2;
(§7) Assay buffer: HBSS (containing calcium and magnesium ions), which contained 20 mM HEPES;
(§8) Detection equipment: FLIPR Tetra (Molecular Devices);

human P2X2/3 receptor = human P2X2/3 receptor (Homo sapiens (Human), UniProt P56373+Q9UBL9); assay: Inhibitory activity on human P2X2/3 receptor (calcium 6 dye FLIPR assay, agonist α,β-MeATP); type: cell-based; settings: HEK293-P2X2/3 stably expressing cell line, FLIPR Tetra
Method: as §1, §2, §3, §4, §5, §6, §7, §8

human P2X2/3 receptor, sequence (Q9UBL9 whole entry): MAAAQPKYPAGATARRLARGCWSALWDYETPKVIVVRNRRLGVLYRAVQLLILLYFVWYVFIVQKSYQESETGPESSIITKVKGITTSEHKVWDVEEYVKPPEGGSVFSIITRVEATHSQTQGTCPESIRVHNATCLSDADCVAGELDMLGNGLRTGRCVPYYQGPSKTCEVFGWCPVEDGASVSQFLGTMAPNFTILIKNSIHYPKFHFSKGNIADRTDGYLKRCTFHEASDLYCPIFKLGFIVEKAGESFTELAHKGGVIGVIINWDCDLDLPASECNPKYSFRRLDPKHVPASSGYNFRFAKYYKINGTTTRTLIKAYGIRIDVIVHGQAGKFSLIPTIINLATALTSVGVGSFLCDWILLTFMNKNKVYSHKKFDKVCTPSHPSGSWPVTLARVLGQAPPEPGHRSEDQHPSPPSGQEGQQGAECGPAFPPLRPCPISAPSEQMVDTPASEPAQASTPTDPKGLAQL
human P2X2/3 receptor, sequence (P56373 whole entry): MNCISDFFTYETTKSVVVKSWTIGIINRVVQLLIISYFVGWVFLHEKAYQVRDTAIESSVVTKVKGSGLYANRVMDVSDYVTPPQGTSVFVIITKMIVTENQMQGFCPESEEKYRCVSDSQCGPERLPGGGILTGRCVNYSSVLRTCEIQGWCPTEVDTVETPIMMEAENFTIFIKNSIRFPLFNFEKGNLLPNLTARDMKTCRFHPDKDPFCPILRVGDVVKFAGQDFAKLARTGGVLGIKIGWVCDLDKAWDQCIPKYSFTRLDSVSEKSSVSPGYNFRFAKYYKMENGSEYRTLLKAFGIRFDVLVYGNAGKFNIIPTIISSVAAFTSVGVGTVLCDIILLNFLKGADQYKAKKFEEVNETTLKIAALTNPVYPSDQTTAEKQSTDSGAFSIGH
human P2X3 receptor, sequence (P56373 whole entry): as above

## CC(C)c1c[n+]([O-])c(Br)cc1Oc1cnc(N)nc1N [C1]
Human P2X3 receptor
  IC50: 746 nM

## CC(C)c1cnc(Cl)cc1Sc1cnc(N)nc1N [C84]
Human P2X3 receptor
  IC50: 536 nM
Human P2X2/3 receptor
  IC50: 742 nM

## C=C(C)c1cnc(NC)cc1Oc1cnc(N)nc1N [C192]
Human P2X3 receptor
  IC50: 53 nM
Human P2X2/3 receptor
  IC50: 69 nM

## CNc1ncc(Oc2cc(Br)ncc2C(C)C)c(NC)n1 [C227]
Human P2X3 receptor
  IC50: 948 nM

## CC(C)c1cnc(Cl)cc1Oc1cnc(N)nc1N [Compound C3, 5-((2-chloro-5-isopropylpyridin-4-yl)oxy)pyrimidine-2,4-diamine]
Human P2X3 receptor
  IC50: 205 nM
Human P2X2/3 receptor
  IC50: 341 nM

## COc1cc(Oc2cnc(N)nc2N)c(C(C)C)cn1 [Compound C4, 5-((5-isopropyl-2-methoxypyridin-4-yl)oxy)pyrimidine-2,4-diamine]
Human P2X3 receptor
  IC50: 102 nM
Human P2X2/3 receptor
  IC50: 158 nM

## CC(C)c1cnc(S(N)(=O)=O)cc1Oc1cnc(N)nc1N [Compound C6, 4-((2,4-diaminopyrimidin-5-yl)oxy)-5-isopropylpyridine-2-sulfonamide]
Human P2X3 receptor
  IC50: 348 nM

## CC(C)c1cnc(I)cc1Oc1cnc(N)nc1N [Compound C12, 5-((2-iodo-5-isopropylpyridin-4-yl)oxy)pyrimidine-2,4-diamine]
Human P2X3 receptor
  IC50: 73.6 nM
Human P2X2/3 receptor
  IC50: 56.7 nM

## CC(C)c1cnc(-c2ccccc2)cc1Oc1cnc(N)nc1N [Compound C13]
Human P2X3 receptor
  IC50: 355 nM
Human P2X2/3 receptor
  IC50: 599 nM

## CCc1cc(Oc2cnc(N)nc2N)c(C(C)C)cn1 [Compound C15, 5-((2-ethyl-5-isopropylpyridin-4-yl)oxy)pyrimidine-2,4-diamine]
Human P2X3 receptor
  IC50: 307 nM
Human P2X2/3 receptor
  IC50: 793 nM

## CC(C)c1cc(Oc2cnc(N)nc2N)c(C(C)C)cn1 [Compound C16, 5-((2,5-diisopropylpyridin-4-yl)oxy)pyrimidine-2,4-diamine]
Human P2X3 receptor
  IC50: 802 nM

## CSc1cc(Oc2cnc(N)nc2N)c(C(C)C)cn1 [Compound C20, 5-((5-isopropyl-2-(methylthio)pyridin-4-yl)oxy)pyrimidine-2,4-diamine]
Human P2X3 receptor
  IC50: 44.4 nM
Human P2X2/3 receptor
  IC50: 75.7 nM

## CC(C)c1cnc(N)cc1Oc1cnc(N)nc1N [Compound C21, 5-((2-amino-5-isopropylpyridin-4-yl)oxy)pyrimidine-2,4-diamine]
Human P2X3 receptor
  IC50: 131 nM
Human P2X2/3 receptor
  IC50: 200 nM

## CNc1cc(Oc2cnc(N)nc2N)c(C(C)C)cn1 [Compound C22, 5-((5-isopropyl-2-(methylamino)pyridin-4-yl)oxy)pyrimidine-2,4-diamine]
Human P2X3 receptor
  IC50: 37 nM
Human P2X2/3 receptor
  IC50: 57 nM

## CC(C)c1cnc(N(C)C)cc1Oc1cnc(N)nc1N [Compound C23, 5-((2-(dimethylamino)-5-isopropylpyridin-4-yl)oxy)pyrimidine-2,4-diamine]
Human P2X3 receptor
  IC50: 365 nM
Human P2X2/3 receptor
  IC50: 644 nM

## COc1cc(Oc2cnc(N)nc2N)c(C2CC2)cn1 [Compound C33, 5-((5-cyclopropyl-2-methoxypyridin-4-yl)oxy) pyrimidine-2,4-diamine]
Human P2X3 receptor
  IC50: 238 nM
Human P2X2/3 receptor
  IC50: 262 nM

## CC(C)c1cnc(-c2cn[nH]c2)cc1Oc1cnc(N)nc1N [Compound C35, 5-((5-isopropyl-2-(1H-pyrazol-4-yl)pyridin-4-yl)oxy)pyrimidine-2,4-diamine]
Human P2X3 receptor
  IC50: 1170 nM

## CC(C)c1cnc(-n2cccc2)cc1Oc1cnc(N)nc1N [Compound C38, 5-((5-isopropyl-2-(1H-pyrrol-1-yl)pyridin-4-yl)oxy)pyrimidine-2,4-diamine]
Human P2X3 receptor
  IC50: 787 nM

## CC(C)c1cnc(-c2ccco2)cc1Oc1cnc(N)nc1N [Compound C39, 5-((2-(furan-2-yl)-5-isopropylpyridin-4-yl)oxy)pyrimidine-2,4-diamine]
Human P2X3 receptor
  IC50: 166 nM
Human P2X2/3 receptor
  IC50: 243 nM

## C=Cc1cc(Oc2cnc(N)nc2N)c(C(C)C)cn1 [Compound C43]
Human P2X3 receptor
  IC50: 55 nM
Human P2X2/3 receptor
  IC50: 180 nM

## C=C(C)c1cc(Oc2cnc(N)nc2N)c(C(C)C)cn1 [Compound C44]
Human P2X3 receptor
  IC50: 116 nM
Human P2X2/3 receptor
  IC50: 423 nM

## C=C(OCC)c1cc(Oc2cnc(N)nc2N)c(C(C)C)cn1 [Compound C45, 5-((2-(1-ethoxyvinyl)-5-isopropylpyridin-4-yl)oxy)pyrimidine-2,4-diamine]
Human P2X3 receptor
  IC50: 435 nM

## CC(C)c1cnc(C2CC2)cc1Oc1cnc(N)nc1N [Compound C52, 5-((2-cyclopropyl-5-isopropylpyridin-4-yl)oxy)pyrimidine-2,4-diamine]
Human P2X3 receptor
  IC50: 147 nM
Human P2X2/3 receptor
  IC50: 589 nM

## CCN(C)c1cc(Oc2cnc(N)nc2N)c(C(C)C)cn1 [Compound C61, 5-((2-(ethyl(methyl)amino)-5-isopropylpyridin-4-yl)oxy)pyrimidine-2,4-diamine]
Human P2X3 receptor
  IC50: 274 nM
Human P2X2/3 receptor
  IC50: 592 nM

## CC(C)c1cnc(N(C)C2CC2)cc1Oc1cnc(N)nc1N [Compound C65, 5-((2-(cyclopropyl (methyl)amino)-5-isopropylpyridin-4-yl)oxy) pyrimidine-2,4-diamine]
Human P2X3 receptor
  IC50: 334 nM
Human P2X2/3 receptor
  IC50: 506 nM

## C#Cc1cc(Oc2cnc(N)nc2N)c(C(C)C)cn1 [Compound C66, 5-((2-ethynyl-5-isopropylpyridin-4-yl)oxy)pyrimidine-2,4-diamine]
Human P2X3 receptor
  IC50: 85 nM
Human P2X2/3 receptor
  IC50: 154 nM

## CC(C)c1cnc(C(F)(F)F)cc1Oc1cnc(N)nc1N [Compound C67, 5-((5-isopropyl-2-(trifluoromethyl)pyridin-4-yl)oxy)pyrimidine-2,4-diamine]
Human P2X3 receptor
  IC50: 490 nM

## CC(C)c1cnc(Br)cc1Oc1cnc(N)nc1NCCN(C)C [Compound C71, 5-((2-bromo-5-isopropylpyridin-4-yl)oxy)-N^4-(2-(dimethylamino)ethyl)pyrimidine-2,4-diamine]
Human P2X3 receptor
  IC50: 72 nM
Human P2X2/3 receptor
  IC50: 67 nM

## CSc1cc(Oc2cnc(N)nc2NCCN(C)C)c(C(C)C)cn1 [Compound C72, N^4-(2-(dimethylamino)ethyl)-5-((5-isopropyl-2-(methylthio)pyridin-4-yl)oxy)pyrimidine-2,4-diamine]
Human P2X3 receptor
  IC50: 127 nM
Human P2X2/3 receptor
  IC50: 89 nM

## CC(C)c1cnc(Br)cc1Sc1cnc(N)nc1N [Compound C85, 5-((2-bromo-5-isopropylpyridin-4-yl)thio)pyrimidine-2,4-diamine]
Human P2X3 receptor
  IC50: 78 nM
Human P2X2/3 receptor
  IC50: 205 nM

## C#Cc1cc(Sc2cnc(N)nc2N)c(C(C)C)cn1 [Compound C88, 5-((2-ethynyl-5-isopropyl-pyrdin-4-yl)thio) pyrimidine-2,4-diamine]
Human P2X3 receptor
  IC50: 133 nM
Human P2X2/3 receptor
  IC50: 122 nM

## CSc1cc(Sc2cnc(N)nc2N)c(C(C)C)cn1 [Compound C91, 5-((5-isopropyl2-(methylthio)pyridin-4-yl)thio) pyrimidine-2,4-diamine]
Human P2X3 receptor
  IC50: 227 nM
Human P2X2/3 receptor
  IC50: 271 nM

## Cc1cc(Sc2cnc(N)nc2N)c(C(C)C)cn1 [Compound C92, 5-((5-isopropyl-2-methylpyridin-4-yl)thio) pyrimidine-2,4-diamine]
Human P2X3 receptor
  IC50: 109 nM
Human P2X2/3 receptor
  IC50: 222 nM

## C=Cc1cc(Sc2cnc(N)nc2N)c(C(C)C)cn1 [Compound C95, 5-((5-isopropyl-2-vinylpyridine-4-yl)thio)pyrimidine-2,4-diamine]
Human P2X3 receptor
  IC50: 138 nM
Human P2X2/3 receptor
  IC50: 163 nM

## CC(C)Nc1cc(Oc2cnc(N)nc2N)c(C(C)C)cn1 [Compound C120, 5-((5-isopropyl-2-(isopropylamino)pyridin-4-yl)oxy)pyrimidine-2,4-diamine]
Human P2X3 receptor
  IC50: 492 nM

## COc1cc(Oc2cnc(N)nc2N)c(Br)cn1 [Compound C124, 5-((5-bromo-2-methoxypyridin-4-yl)oxy)pyrimidine-2,4-diamine]
Human P2X3 receptor
  IC50: 1240 nM

## CCSc1cc(Sc2cnc(N)nc2N)c(C(C)C)cn1 [Compound C125, 5-((2-(ethylthio)-5-isopropyl-pyridin-4-yl)thio) pyrimidine-2,4-diamine]
Human P2X3 receptor
  IC50: 731 nM

## CC(C)c1cnc(C(N)=O)cc1Oc1cnc(N)nc1N [Compound C129, 4-((2,4-diamino-pyrimidin-5-yl)oxy)-5-isopropyl-picolinamide]
Human P2X3 receptor
  IC50: 377 nM

## CC(C)c1cnc(/C=C/c2ccccc2)cc1Oc1cnc(N)nc1N [Compound C138, (E)-5-((5-isopropyl-2-styrylpyridin-4-yl)oxy) pyrimidine-2,4-diamine]
Human P2X3 receptor
  IC50: 635 nM

## CC(C)c1cnc(CC(=O)c2ccc(N(C)C)cc2)cc1Oc1cnc(N)nc1N [Compound C155]
Human P2X3 receptor
  IC50: 926 nM

## CC(C)c1cnc(Br)cc1Oc1cnc(N)nc1N[C@H](C)C1CC1 [Compound C182, (R)-5-((2-bromo-5-isopropylpyridin-4-yl)oxy)-N^4-(1-cyclopro-pylethyl) pyrimidine-2,4-diamine]
Human P2X3 receptor
  IC50: 670 nM

## CC(C)c1cnc(C#Cc2cnc3cccnn23)cc1Oc1cnc(N)nc1N [Compound C195, 5-((2-(imidazo[1,2-b]pyridazin-3-ylethynyl)-5-isopropylpyridin-4-yl)oxy)pyrimidine-2,4-diamine]
Human P2X3 receptor
  IC50: 316 nM

## CC(C)c1cnc(NCCO)cc1Oc1cnc(NCCO)nc1N [Compound C242, 2-((4-((4-amino-2-((2-hydroxyethyl)amino)pyrimidin-5-yl)oxy)-5-isopropyl-pyridin-2-yl)amino)ethanol]
Human P2X3 receptor
  IC50: 744 nM
